Reference: patent publication US20120010235A1, “N-SUBSTITUTED PYRROLIDINES” (priority 2010, published 2012)

These molecules were tested on SJSA, an osteocarcinoma cell line (assay: antiproliferative activity assay (tetrazolium dye, MTT) in SJSA cells). Details: cell-based MTT assay, inhibition of cell proliferation, read-out: TT IC50.
Method: The pharmacological properties of the compounds of this invention may be confirmed by a number of pharmacological assays. The exemplified antiproliferative activity assay which follows has been carried out with the compounds according to the invention.
Cell proliferation was evaluated by the tetrazolium dye assay according to the procedure of Denizot and Lang (Denizot, F. and Lang, R. (1986) Rapid colorimetric assay for cell growth and survival. Modification to the terrazolium dye procedure giving improved sensitivity and reliability. J. Immunol. Methods 89, 271-277). The cell line used was SJSA, an osteocarcinoma cell line obtained from the American Type Cell Culture Collection (ATCC; Rockville, Md.). The cells were grown in PRMI with 10% FBS (Fetal Bovine Serum, Invitrogen).
Cells were plated at the appropriate seeding density to give logarithmic growth over the course of the assay in a 96-well tissue culture plate. Plates were incubated overnight at 37° C. in a humidified incubator with 5% CO2. The next day, test compounds were serially diluted 1:3 in the appropriate medium containing 3% DMSO. One-tenth final volume of each dilution was added […] to the plates containing cells. The same volume of 3% DMSO in medium was added to a row of control wells. Thus, the final concentration of DMSO in all wells was 0.3%. The plates were returned to the incubator, and at set time points (determined by their growth curves) plates were analyzed as follows: 3-(4,5-dimethylthiazole-2-yl)-2,5-diphenyl-2H-tetrazolium bromide (thiazolyl blue; MTT; Sigma) was added to each well to yield a final concentration of 1 mg/ml. Plates were returned to the incubator for 2.5 hours. The MTT-containing medium was removed and the resulting formazan metabolite was solubilized in 100% ethanol with shaking for 15 minutes at room temperature. Absorbances were read in a microtiter plate reader at a wavelength of 570 nm with a 650 nm reference. Percent inhibition (% INH) was calculated by subtracting the blank from all wells, then subtracting the ratio of the average absorbance of each triplicate (SAVE) by the average of the controls (CAVE) from 1.00. The final product was then multiplied by 100 (% INH=(1.00−SAVE/CAVE)×100). The concentration at which 50% inhibition (IC50) of cell proliferation is obtained was determined from the linear regression of a plot of the logarithm of the concentration versus percent inhibition.

| SMILES | IC50 |
| --- | --- |
| C#CCN1[C@@H](CC(C)(C)C)[C@](C#N)(c2ccc(Cl)cc2F)[C@@H](c2cccc(Cl)c2F)[C@@H]1C(=O)Nc1ccc(C(=O)O)cc1OC [Example 62, 4-{[(2R,3S,4R,5S)-3-(3-chloro-2-fluoro-phenyl)-4-(4-chloro-2-fluoro-phenyl)-4-cyano-5-(2,2-dimethyl-propyl)-1-prop-2-ynyl-pyrrolidine-2-carbonyl]-amino}-3-methoxy-benzoic acid] | 80 nM |
| CCN1[C@@H](CC(C)(C)C)[C@](C#N)(c2ccc(Cl)cc2F)[C@@H](c2cccc(Cl)c2F)[C@@H]1C(=O)Nc1ccc(C(=O)O)cc1 (racemic) [Example 33, 4-{[(2R,3S,4R,5S)-3-(3-chloro-2-fluoro-phenyl)-4-(4-chloro-2-fluoro-phenyl)-4-cyano-5-(2,2-dimethyl-propyl)-1-ethyl-pyrrolidine-2-carbonyl]-amino}benzoic acid] | 1310 nM |
| CNC(=O)c1ccc(NC(=O)[C@H]2[C@H](c3cccc(Cl)c3F)[C@@](C#N)(c3ccc(Cl)cc3F)[C@H](CC(C)(C)C)N2C)c(OC)c1 (racemic) [Example 51, rac-(2R,3S,4R,5S)-3-(3-chloro-2-fluoro-phenyl)-4-(4-chloro-2-fluoro-phenyl)-4-cyano-5-(2,2-dimethyl-propyl)-1-methyl-pyrrolidine-2-carboxylic acid (2-methoxy-4-methylcarbamoyl-phenyl)-amide] | 460 nM |
| COc1cc(C(=O)O)ccc1NC(=O)[C@H]1[C@H](c2cccc(Cl)c2F)[C@@](C#N)(c2ccc(Cl)cc2F)[C@H](CC(C)(C)C)N1C [Example 31, 4-{[(2R,3S,4R,5S)-3-(3-chloro-2-fluoro-phenyl)-4-(4-chloro-2-fluoro-phenyl)-4-cyano-5-(2,2-dimethyl-propyl)-1-methyl-pyrrolidine-2-carbonyl]-amino}-3-methoxy-benzoic acid] | 190 nM |
| COc1cc(C(=O)O)ccc1NC(=O)[C@H]1[C@H](c2cccc(Cl)c2F)[C@@](C#N)(c2ccc(Cl)cc2F)[C@H](CC(C)(C)C)N1C (racemic) [Example 39, rac-4-{[(2R,3S,4R,5S)-3-(3-chloro-2-fluoro-phenyl)-4-(4-chloro-2-fluoro-phenyl)-4-cyano-5-(2,2-dimethyl-propyl)-1-methyl-pyrrolidine-2-carbonyl]-amino}-3-methoxy-benzoic acid] | 40 nM |
| COc1cc(NC(=O)[C@H]2[C@H](c3cccc(Cl)c3F)[C@@](C#N)(c3ccc(Cl)cc3F)[C@H](CC(C)(C)C)N2CC2CC2)ccc1C(=O)O [Example 38, 4-{[(2R,3S,4R,5S)-3-(3-chloro-2-fluoro-phenyl)-4-(4-chloro-2-fluoro-phenyl)-4-cyano-1-cyclopropylmethyl-5-(2,2-dimethyl-propyl)-pyrrolidine-2-carbonyl]-amino}-2-methoxy-benzoic acid] | 90 nM |
| COc1cc(C(=O)O)ccc1NC(=O)[C@H]1[C@H](c2cccc(Cl)c2F)[C@@](C#N)(c2ccc(Cl)cc2F)[C@H](CC(C)(C)C)N1CCCCCO (racemic) [Example 56, rac-4-{[(2R,3S,4R,5S)-3-(3-chloro-2-fluoro-phenyl)-4-(4-chloro-2-fluoro-phenyl)-4-cyano-5-(2,2-dimethyl-propyl)-1-(5-hydroxy-pentyl)-pyrrolidine-2-carbonyl]-amino}-3-methoxy-benzoic acid] | 30 nM |
| CCN1[C@@H](CC(C)(C)C)[C@](C#N)(c2ccc(Cl)cc2F)[C@@H](c2cccc(Cl)c2F)[C@@H]1C(=O)Nc1ccc(C(=O)O)cc1OC (racemic) [Example 44, rac-4-{[(2R,3S,4R,5S)-3-(3-chloro-2-fluoro-phenyl)-4-(4-chloro-2-fluoro-phenyl)-4-cyano-5-(2,2-dimethyl-propyl)-1-ethyl-pyrrolidine-2-carbonyl]-amino}-3-methoxy-benzoic acid] | 220 nM |
| COc1cc(C(=O)O)ccc1NC(=O)[C@H]1[C@H](c2cccc(Cl)c2F)[C@@](C#N)(c2ccc(Cl)cc2F)[C@H](CC(C)(C)C)N1CC1CC1 (racemic) [Example 40, rac-4-{[(2R,3S,4R,5S)-3-(3-chloro-2-fluoro-phenyl)-4-(4-chloro-2-fluoro-phenyl)-4-cyano-1-cyclopropylmethyl-5-(2,2-dimethyl-propyl)-pyrrolidine-2-carbonyl]-amino}-3-methoxy-benzoic acid] | 130 nM |
